“Also recorded” adds a separate entry of the source.
How the values were obtained:
full-length p300 protein = biological target: T1, full-length p300 protein (Homo sapiens, UniProt Q09472); experiment: ELISA binding of full-length p300 to biotinylated peptides; conditions: biotinylated peptide titrated onto streptavidin-coated wells
T1 construct: Full-length p300 and p300(1135-2414) baculovirus were a gift from N. B. La Thangue; made in house; host or cells: Sf9 insect cells (baculovirus)
Experimental: Microtitre wells were coated with 100 ng of streptavidin and incubated overnight at room temperature. To prevent non-specific binding, 100 μl of 3% BSA, PBS, 01% Tween 20 was added and incubated for 1 hour at 4° C. Wells were washed 3 times with 180 μl PBSM 0.1% Tween 20 and biotinylated peptides, resuspended in 50 μl/well of 3% BSA, PBS, 0.1% Tween 20/NaF/Beta-phosphoglycerate, were incubated for 1 hour at 4° C. Non-specific binding sites were blocked by adding 180 μl 5% milk powder, PBS, 0.1 Tween 20/NaF/Beta-phosphoglycerate for 30 minutes at 4° C. before adding p300 resuspended in 50 ml/well of Sf9LB. Where plant extract was added to p300, the reaction was incubated for 30 minutes before adding to wells. The reaction was the incubated for 1 hour at 4° C. and then the wells were rigorously washed 3 times with 180 μl PBS, 0.1%, Tween 20 before incubating for 1 hour with specific antibodies in 50 μl/well 5% milk powder, PBS, 0.1% Tween 20/NaF/Beta-phosphoglycerate. Wells were given another 3 washes with PBS, 0.1%, Tween 20 to remove unbound antibody and specific binding was detected with secondary antibody (anti-mouse or anti-rabbit) conjugated to horse radish peroxidase (HRP). The binding was detected by ECL and quantified using a luminometer (Fluoroskan Ascent FL).
Plates were rigorously washed 3 times with PBST20 (0.1% v/v) to reduce the non-specific binding. Primary antibodies anti-p300(N-15) (Santa Cruz Biotechnology Inc.), anti-FLAG (Sigma) and anti-Mdm2 (2A10) (Movarian Biotechnologies) were used and the appropriate secondary antibody cross-linked to HRP. The signal detected by Enhanced Chemoluminescence was developed using Fluoroskan Ascent FL.

[1] = tested on: p53-dependent transactivation of the p21 promoter; experiment: p21-Luciferase reporter of endogenous p53-dependent transcription in A375 cells; format: cell-based; conditions: for basal p53-dependent transactivation of the p21 promoter: cycling A375 cells, transient transfection, p21-Luc / β-Gal
Experimental: Proliferating A375 cells were transiently co-transfected with EGFP-NS, EGFP-BOX-I, EGFP-S15D, EGFP-T18D or EGFP-S20D and control or p21-Luciferase reporter constructs. Changes in the basal p53-dependent transcription activity was quantitated 24 hours post-transfection.
A375 and HCT116 cells both containing a wild-type p53 pathway were maintained in DMEM (Gibco BRL) supplemented with 10% FBS and incubated at 37° C. with an atmosphere of 10% CO2. For transient transfections, 3×10^5 cells were plated out in 6-well dishes and transfected with LipofectAMINE (Gibco BRL). The exact quantity of DNA transfected is indicated in each experiment and where necessary, carrier DNA was incorporated to keep the same quantity of DNA consistent in each transfecton. To monitor transfection efficiency, pCMV-βGal was included in each transfection. Unless otherwise stated, cells were harvested 24 hours post-transfection and lysed in Reporter Lysis Buffer and the corresponding luciferase and β-Gal assay carried out according to the manufacturers protocol (Promega, UK).

[2] = tested on: p300 induction of p53-dependent gene expression from the bax promoter; experiment: p53/p300 co-transfected Saos-2 cells, bax-Luc reporter; format: cell-based; conditions: Saos-2 cells co-transfected with p53 and p300, increasing EGFP construct
Experimental: FIG. 5: In vivo inhibition of ectopically expressed p53 activity from the bax promoter by phospho-peptide mimetic fusion proteins. (A) Stimulation of p53 activity by cotransfection with p300. Saos-2 cells were transiently co-transfected with 1 μg of pCMV-p53, 2 μg bax-Luc, 1 μg pCMVβ-Gal and increasing amounts of pCMV-βp300. The cells were harvested 30 hours post-transfection and the relative activity is expressed as a ratio of luciferase activity to β-Gal activity. (B) EGFP-S20D peptide fusion protein inhibits p300 induction of p53-dependent gene expression. Saos-2 cells were transiently co-transfected with 1 μg pCMV-p53, 2 μg bax-Luc, 5 μg pCMVβp300, 1 μg of pCMVβ-Gal and increasing amounts of EGFP-S20D or EGFP-control. Cells were harvested 30 hours post-transfection and relative activity is expressed as a ratio of luciferase activity to β-Gal activity ( ? control, 0 μg, 1 μg, 2 μg and 5 μg).
(§1) A final model used to examine whether the phospho-peptide mimetic peptides inhibit p53 activity involved the use of the p53-null cell line Saos-2 co-transfected with p300, p53, and the indicated reporter or expression vectors (FIG. 3). Transient co-transfection of increasing amounts of p300 with p53 into Saos-2 cells lead to maximal stimulation of p53-dependent gene expression from the p21 promoter (FIG. 3A) or the bax promoter (FIG. 5A).
A375 and Saos-2 cells were maintained in DMEM (Gibco BRL) supplemented with 10% FBS and incubated at 37° C. with an atmosphere of 10% CO2. Transient transfections and ELISAs were carried out as previously described (Dornan and Hupp 2001). Full-length p300 and His-p300 infected Sf9 cells were harvested 72 hours post-infection as described previously (Shikama, Lee et al. 1999; Dornan and Hupp 2001). Sf9 expressed wtp53 and p53ΔProAE tetramers were purified by heparin-sepharose chromatography as described previously (Hupp and Lane 1994). […] The signal detected by Enhanced Chemo-luminescence was developed using autoradiography film (Amersham).

HCT116 (p53^+/+) cells = experiment: Cell cycle profile by FACS in HCT116 p53+/+ cells; format: cell-based; conditions: 5 μg EGFP construct, CD20-selected cells, propidium iodide
Description: To address this issue, we co-transfected EGFP-NS, EGFP-BOXI, EGFP-S20D or EGFP-PRO with pCMV-CD20 cell surface marker into HCT116 (p53^+/+) cells, selected the transfected population using a FITC-conjugated CD20 antibody, sorted them by FACS and the resultant cell cycle profile of the transfected population determined by propidium iodide staining of DNA. The amount of EGFP-peptide construct and levels of EGFP protein produced were identical to those used in transcription assays (FIG. 10 and data not shown), so a direct correlation can be made between the reduction in transcription by the EGFP-S20D or EGFP-PRO peptides and changes in cell-cycle parameters. […] The MDM2-binding peptides have been well-documented to have a positive affect on […] dependent transcription (Bottger, Bottger et al. 1996).
(§2) To select the transfected cell population, cells were co-transfected with 3 μg pCMV-CD20 and incubated for 24 hours before washing and detaching cells in PBS/5 mM EDTA. Cells were then harvested and resuspended in serum free media with FITC-conjugated anti-CD20 (Becton Dickinson) and incubating for 30 minutes on ice. Cells were then washed twice with PBS/1% FBS and resuspended in 100 μl PBS before adding 900 μl ice-cold ethanol dropwise. After incubation at 4° C. for >2 hours cells were stained with Pi (40 μg/ml) and treated with RNAse (100 μg/ml). Transfected cells were gated using the FL1 channel and PI staining detected with the FL2 channel and the resultant cell cycle profiles of 2000 cells were analysed using a FACScan and CellQuest software (Becton Dickinson).

HCT116 p53^−/− cells = experiment: Cell cycle profile by FACS in HCT116 p53-/- cells; format: cell-based; conditions: 5 μg EGFP construct, CD20-selected cells, propidium iodide
Experimental: With the arrest in G2/M observed in p53^+/+ cells using the PRO and S20D fusion peptides, it was determined whether the peptides would have any effect on the cell cycle profile in a p53^−/− cell line. Using the same parameters as in the p53^+/+ cell line, the effects on the cell cycle were determined (FIGS. 12B and 12D).
as §2

[3] = tested on: p300 induction of p53-dependent gene expression from the p21 promoter; experiment: p53/p300 co-transfected Saos-2 cells, p21-Luc reporter; format: cell-based; conditions: for p53-p300 co-stimulated transactivation, p21 promoter: Saos-2 cells co-transfected with p53 and p300, increasing EGFP construct; for p53 protein levels (immunoblot): Saos-2 cells, 1 μg EGFP construct, relative to EGFP-NS control
Experimental: FIG. 3: In vivo inhibition of ectopically expressed p53 from the p21 promoter by phospho-peptide mimetic fusion proteins. (A) Stimulation of p53 activity by cotransfection with p300. Saos-2 cells were transiently co-transfected with 1 μg of pCMV-p53, 2 μg p21-Luc, 1 μg pCMVβ-Gal and increasing amounts of pCMV-βp300. The cells were harvested 30 hours post-transfection and the relative activity is expressed as a ratio of luciferase activity to β-Gal activity (Δ negative control, 0 ng, 1 μg, 2 μg and 5 μg). (B) EGFP-S20D peptide ([…] LPENN) inhibits p300 induction of p53-dependent gene expression. Saos-2 cells were transiently co-transfected with 1 μg pCMV-p53, 2 μg p21-Luc, 5 μg pCMVβp300, 1 μg of pCMVβ-Gal and increasing amounts of EGFP-constructs as indicated. The cells were processed as described in the legend of FIG. 3A (▴ control, control, 1 μg, 2 μg and 5 μg). (C) Immunoblots of p53 and EGFP-fusion proteins in transfected Saos-2 cells. Lysates from transfected Saos-2 cells [as described in FIG. 3B] were normalized for protein content by Bradford and loading for immunoblots was confirmed by Red Ponceau staining. The constructs transfected are highlighted by the legend above the Figure (increasing amounts of EGFP fused to NS, BOX-I, S15D, T18D, and S20D BOX-I domain peptides) and are described below the Figure as a “+”. The levels of p53, EGFP, and p21 proteins are in the top, middle, or bottom panel, respectively. p53-dependent activity (in RLU's) from FIG. 3B is listed underneath the immunoblots for direct comparison of p53 activity to p53 protein and EGFP protein levels.
as §1
A375 and Saos-2 cells were maintained in DMEM (Gibco BRL) supplemented with 10% FBS and incubated at 37° C. with an atmosphere of 10% CO2. Transient transfections and ELISAs were carried out as previously described (Dornan and Hupp 2001). Full-length p300 and His-p300 infected Sf9 cells were harvested 72 hours post-infection as described previously (Shikama, Lee et al. 1999; Dornan and Hupp 2001). Sf9 expressed wtp53 and p53ΔProAE tetramers were purified by heparin-sepharose chromatography as described previously (Hupp and Lane 1994). Transfected lysates were run on a 12% SDS-PAGE and transferred to nitrocellulose membrane and even protein loading confirmed by Ponceau S (Sigma) staining. Primary antibodies anti-p53 (DO-1), anti-p21 (Ab-1) (Calbiochem), anti-Bax (N-20) (Santa Cruz Biotechnology Inc.), anti-EGFP (Clontech) were used and the appropriate secondary antibody conjugated to HRP. The signal detected by Enhanced Chemo-luminescence was developed using autoradiography film (Amersham).

T1 sequence (Q09472 whole entry): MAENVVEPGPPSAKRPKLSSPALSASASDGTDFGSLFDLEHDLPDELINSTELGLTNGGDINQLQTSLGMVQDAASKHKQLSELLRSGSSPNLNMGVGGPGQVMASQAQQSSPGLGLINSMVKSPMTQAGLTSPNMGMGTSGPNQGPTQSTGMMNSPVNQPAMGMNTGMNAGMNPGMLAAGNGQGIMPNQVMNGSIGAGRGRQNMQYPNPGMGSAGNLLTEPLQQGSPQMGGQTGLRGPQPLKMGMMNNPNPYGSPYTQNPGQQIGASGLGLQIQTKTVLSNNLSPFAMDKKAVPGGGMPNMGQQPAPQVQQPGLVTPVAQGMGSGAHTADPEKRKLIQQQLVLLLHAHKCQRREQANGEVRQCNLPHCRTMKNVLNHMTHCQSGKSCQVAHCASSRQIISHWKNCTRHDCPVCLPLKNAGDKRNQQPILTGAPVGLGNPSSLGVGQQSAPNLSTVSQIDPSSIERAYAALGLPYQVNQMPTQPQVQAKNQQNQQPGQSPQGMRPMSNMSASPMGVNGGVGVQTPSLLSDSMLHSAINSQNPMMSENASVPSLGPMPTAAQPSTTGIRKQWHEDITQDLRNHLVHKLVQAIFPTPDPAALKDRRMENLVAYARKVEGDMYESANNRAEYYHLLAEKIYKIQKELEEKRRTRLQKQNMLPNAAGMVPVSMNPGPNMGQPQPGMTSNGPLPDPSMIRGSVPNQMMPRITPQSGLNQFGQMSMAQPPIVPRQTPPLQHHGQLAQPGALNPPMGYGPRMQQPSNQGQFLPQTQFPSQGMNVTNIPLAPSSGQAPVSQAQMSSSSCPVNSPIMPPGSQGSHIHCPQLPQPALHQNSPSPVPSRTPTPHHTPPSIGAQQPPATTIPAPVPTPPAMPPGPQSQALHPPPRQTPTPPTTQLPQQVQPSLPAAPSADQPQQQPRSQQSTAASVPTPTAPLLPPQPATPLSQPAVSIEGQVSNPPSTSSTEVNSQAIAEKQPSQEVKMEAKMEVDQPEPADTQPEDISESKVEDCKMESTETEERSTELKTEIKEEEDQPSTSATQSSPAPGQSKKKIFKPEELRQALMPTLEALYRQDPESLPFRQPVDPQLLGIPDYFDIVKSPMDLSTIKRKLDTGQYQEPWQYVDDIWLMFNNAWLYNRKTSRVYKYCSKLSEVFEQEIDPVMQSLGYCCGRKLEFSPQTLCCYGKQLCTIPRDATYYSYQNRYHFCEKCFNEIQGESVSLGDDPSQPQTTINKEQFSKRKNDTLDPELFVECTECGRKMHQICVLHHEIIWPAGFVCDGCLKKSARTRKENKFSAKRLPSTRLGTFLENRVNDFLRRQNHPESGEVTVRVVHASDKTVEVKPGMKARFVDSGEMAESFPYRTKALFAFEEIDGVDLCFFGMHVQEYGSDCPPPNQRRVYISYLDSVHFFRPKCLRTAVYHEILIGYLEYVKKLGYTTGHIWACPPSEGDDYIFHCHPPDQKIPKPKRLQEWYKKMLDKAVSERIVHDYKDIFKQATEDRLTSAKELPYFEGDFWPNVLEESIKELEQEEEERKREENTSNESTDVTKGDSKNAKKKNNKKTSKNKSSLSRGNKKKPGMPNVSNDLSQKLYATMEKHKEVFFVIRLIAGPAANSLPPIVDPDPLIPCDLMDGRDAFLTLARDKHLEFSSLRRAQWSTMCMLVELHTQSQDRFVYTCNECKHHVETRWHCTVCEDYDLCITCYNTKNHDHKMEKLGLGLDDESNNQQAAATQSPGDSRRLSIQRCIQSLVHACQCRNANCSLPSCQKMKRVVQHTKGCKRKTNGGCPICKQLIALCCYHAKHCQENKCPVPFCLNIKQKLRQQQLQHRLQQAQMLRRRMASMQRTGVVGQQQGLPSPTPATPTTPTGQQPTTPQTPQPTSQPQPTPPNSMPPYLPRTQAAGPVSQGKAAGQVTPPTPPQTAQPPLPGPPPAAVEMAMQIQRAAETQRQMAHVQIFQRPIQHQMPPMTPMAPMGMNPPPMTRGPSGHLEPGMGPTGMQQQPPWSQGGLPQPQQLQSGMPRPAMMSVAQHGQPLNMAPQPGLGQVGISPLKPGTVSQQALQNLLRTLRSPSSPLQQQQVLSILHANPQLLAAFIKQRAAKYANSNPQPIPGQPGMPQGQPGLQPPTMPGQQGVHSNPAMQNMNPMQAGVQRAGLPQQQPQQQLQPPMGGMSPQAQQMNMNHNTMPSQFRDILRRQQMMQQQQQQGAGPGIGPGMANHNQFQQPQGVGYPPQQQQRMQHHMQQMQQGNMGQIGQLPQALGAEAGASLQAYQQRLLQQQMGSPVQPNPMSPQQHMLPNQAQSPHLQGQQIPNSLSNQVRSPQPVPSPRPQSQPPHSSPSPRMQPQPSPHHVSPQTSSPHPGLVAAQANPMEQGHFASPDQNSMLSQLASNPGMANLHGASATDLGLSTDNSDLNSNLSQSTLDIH

| Substance | binding of full-length p300 protein to the peptide (RLU) (full-length p300 protein) | basal p53-dependent transactivation of the p21 promoter [1] | p53-p300 co-stimulated transactivation, bax promoter [2] | cell cycle effect (G2/M arrest) (HCT116 (p53^+/+) cells) | p53-p300 co-stimulated transactivation, p21 promoter [3] | other results |
| --- | --- | --- | --- | --- | --- | --- |
| UBF1 (321-336): consensus peptide from UBF1, amino acids 321-336 (STERMVLCSQQWKLLS; UniProt P17480 321-336, looked up, fragment) | affinity slightly less than the p53 BOX-I-Ser^20 phospho-peptide | – | – | – | – | – |
| p53PRO (69-88): p53 polyproline peptide amino acids 69-88 (AAPPVAPAPAAPTPAAPAPA; UniProt P04637 69-88, looked up, fragment) | did not restore binding activity | – | – | – | – | – |
| EPPLSQETFDDLWKL LPENN [EGFP-S20D] | – | inhibiting p53 activity to the highest degree | inhibited synergism between p53 and p300; also recorded: inhibits transactivation | induced a prominent G2/M arrest | inhibited synergism between p53 and p300; also recorded: inhibits transactivation | cell cycle effect (G2/M arrest) (HCT116 p53^−/− cells): failed to elicit a defined G2/M arrest; p53 protein levels (immunoblot) [3]: increased |
| C-terminal end of the SMAD4 polyproline domain: peptide from the Smad-4 proline-rich region (aa 275-303), C-terminal end (PYTPNLPHHQNGHLQHHPPMPPHPGHYWP; UniProt Q13485 275-303, looked up, fragment) | relatively high affinity | – | – | – | – | – |
| EPPLSQETFSDLWKLLPENN [EGFP-BOX-I] | – | expected increase in p53-dependent transactivation | stimulated p53 activity | relatively insignificant role in altering cell-cycle parameters | stimulated p53 activity | p53-dependent gene expression in irradiated cells ([1]; A375 cells, ionizing radiation (5 Gy) or UV-C (20 J/m^2), p21-Luc): stimulated p53 activity in the irradiated cell; p53 protein levels (immunoblot) [3]: increased |
| p53 polyproline peptide (83-102): p53 polyproline peptide containing amino acids 83-102 (AAPAPAPSWPLSSSVPSQKT; UniProt P04637 83-102, looked up, fragment) | high affinity | – | – | – | – | – |
| UBF1 (231-246): consensus peptide from UBF1, amino acids 231-246 (GKQWSQLSDKKRLKWI; UniProt P17480 231-246, looked up, fragment) | did not bind p300 | – | – | – | – | – |
| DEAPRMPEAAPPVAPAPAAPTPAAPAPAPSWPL [EGFP-PRO] | – | inhibit endogenous p53-dependent transcription compared to the EGFP-NS peptide and with the same potency as the EGFP-S20D peptide | striking inhibition of p53-p300 co-stimulation | more striking arrest in G2/M phase | striking inhibition of p53-p300 co-stimulation | cell cycle effect (G2/M arrest) (HCT116 p53^−/− cells): similarly induced a G2/M arrest |
